Results from patent US20210047622A1, “METHOD FOR OBTAINING AN ANIMAL MODEL FROM CONDITIONALLY REPROGRAMMED CELLS AND USE OF THE ANIMAL MODEL FOR SCREEING ANTI-TUMOR DRUGS” (Shanghai Lide Biotech Co., Ltd., priority 2018, published 2021).
Values joined by “and” are separate entries in the source; they are usually repeats but may differ in a detail not shown here. Equal values may be shown once.

Tests used:
Assay type in all cases: in vivo, human
[1] = test system: MDX123 Mini-PDX models (conditional reprogramming cells from a colonrectal cancer patient); test: Anti-tumor efficacy in MDX123 Mini-PDX model; details: Mini-PDX devices s.c. in nude mice, CTG cell viability day 7, i.p., doses and schedules per Table 5
Text: (§1) The inoculation day was defined as day 0.

[2] = test system: MDX095 Mini-PDX models (conditional reprogramming cells from a peritoneal malignant tnesoshelioma patient); test: Anti-tumor efficacy in MDX095 Mini-PDX model; details: Mini-PDX devices s.c. in nude mice, CTG cell viability day 7, i.p., doses and schedules per Table 3
Text: Conditional reprogramming cells from […]123 were collected separately. […] The inoculation day was defined as day 0.

[3] = test system: MDX164 Mini-PDX models (conditional reprogramming cells from a glioblastoma patient); test: Anti-tumor efficacy in MDX164 Mini-PDX model; details: Mini-PDX devices s.c. in nude mice, CTG cell viability day 7, 50 mg/kg p.o. qd*5
Text: as §1

[4] = test system: MDX165 Mini-PDX models (conditional reprogramming cells from a glioblastoma patient); test: Anti-tumor efficacy in MDX165 Mini-PDX model; details: Mini-PDX devices s.c. in nude mice, CTG cell viability day 7, 50 mg/kg p.o. qd*5
Text: as §1

[5] = test system: MDX133 Mini-PDX models (conditional reprogramming cells from a gastric cancer patient); test: Anti-tumor efficacy in MDX133 Mini-PDX model; details: Mini-PDX devices s.c. in nude mice, CTG cell viability day 7, doses, routes and schedules per Table 6
Text: (§2) Conditional reprogramming cells from MDX133, MDX154, MDX164, MDX165, MDX168, MDX169, MDX174, MDX186, MDX189, MDX203 were collected separately. MDX133 originated from a gastric cancer patient, MDX154 model originated from a gallbladder carcinoma patient, MDX164 model originated from a glioblastoma patient, MDX165 model originated from a glioblastoma patient, MDX168 model originated from a gallbladder carcinoma patient, MDX169 model originated from a lung cancer patient, MDX174 model originated from a lung cancer patient, MDX186 model originated from a pancreatic cancer patient, MDX189 model originated from a esophagus cancer patient, MDX203 model originated from a gallbladder carcinoma patient.
(§3) Wash the tumor tissue sample with buffer solution and remove away non-tumor tissue and necrotic tumor tissue in biosafety cabinet. Cut the tumor into 1˜3 mm3 fragments, suspend pellet with 1× collagenase solution and incubate in 37° C. for 1-2 hours. Collect single cells through 70 uM strainer, count cell numbers to calculate tumor cell concentration (See 9. Tumor cell concentration obtained from surgery and biopsy/needle biopsy). Cultivate the cells with conditional reprogramming medium, after tumor cells proliferation, and harvest the conditional reprogramming cells.
(§4) Suspend tumor tissues obtained from biopsy/needle biopsy in 1× collagenase solution and incubate in 37° C. for 1-2 hours. Collect single cells through 70 uM strainer, count cell numbers to calculate tumor cell concentration (See 9. Tumor cell concentration obtained from surgery and biopsy/needle biopsy). Cultivate the cells with conditional reprogramming medium, after tumor cells proliferation, and harvest the conditional reprogramming cells.
(§5) The cells suspension was filled into Mini-PDX device and the devices were inoculated subcutaneously into both flanks of Nu/Nu-nude mice, to establish the Mini-PDX model. The inoculation day was defined as day 0. Mice were randomized in groups according to the bodyweights and the treatments were initiated at day 0.
(§6) • 6.4.1 Body weight were measured every day, the treatment periods of these studies were 7 days, at the termination, all mice were euthanized and the Mini-PDX devices were removed for CTG (cell viability) assay. Tumor relative proliferation rate (%) is the indication of the anti-tumor activity. • 6.4.2 When VCd7−Vd0>0, Tumor relative proliferation rate (%)=(VTd7−Vd0)/(VCd7−Vd0)×100%; When VCd7−Vd0<0, Tumor relative proliferation rate (%)=VTd7/VCd7×100% (VTd7: the cell viability on day 7 of treatment group; VCd7: the cell viability on day 7 of control group; Vdo: the cell viability on day 0).

[6] = test system: MDX154 Mini-PDX models (conditional reprogramming cells from a gallbladder carcinoma patient); test: Anti-tumor efficacy in MDX154 Mini-PDX model; details: Mini-PDX devices s.c. in nude mice, CTG cell viability day 7, doses, routes and schedules per Table 7
Text: as §1

[7] = test system: MDX168 Mini-PDX models (conditional reprogramming cells from a gallbladder carcinoma patient); test: Anti-tumor efficacy in MDX168 Mini-PDX model; details: Mini-PDX devices s.c. in nude mice, CTG cell viability day 7, doses, routes and schedules per Table 10
Text: as §2, §3, §4, §5, §6

[8] = test system: MDX186 Mini-PDX models (conditional reprogramming cells from a pancreatic cancer patient); test: Anti-tumor efficacy in MDX186 Mini-PDX model; details: Mini-PDX devices s.c. in nude mice, CTG cell viability day 7, doses, routes and schedules per Table 13
Text: as §2, §3, §4, §5, §6

[9] = test system: MDX203 Mini-PDX models (conditional reprogramming cells from a gallbladder carcinoma patient); test: Anti-tumor efficacy in MDX203 Mini-PDX model; details: Mini-PDX devices s.c. in nude mice, CTG cell viability day 7, doses, routes and schedules per Table 15
Text: as §2, §3, §4, §5, §6

Row | Compound | T/C % (Tumor relative proliferation rate) [1] | T/C % (Tumor relative proliferation rate) [2] | T/C % (Tumor relative proliferation rate) [5] | T/C % (Tumor relative proliferation rate) [6] | T/C % (Tumor relative proliferation rate) [7] | T/C % (Tumor relative proliferation rate) [8] | T/C % (Tumor relative proliferation rate) [9] | other results
1 | Cc1nc2ccc(CN(C)c3ccc(C(=O)N[C@@H](CCC(=O)O)C(=O)O)s3)cc2c(=O)[nH]1 [Raltitrexed] | 92% | – | – | – | – | – | – | –
2 | N.N.[Cl][Pt][Cl] [Cisplatin] | – | 128% | – | – | – | – | – | –
3 | Cn1nnc2c(C(N)=O)ncn2c1=O [Temozolomide] | – | – | – | – | – | – | – | T/C % (Tumor relative proliferation rate) [3]: 102%; T/C % (Tumor relative proliferation rate) [4]: 29%
4 | O=C1[O][Pt]2([NH][C@@H]3CCCC[C@H]3[NH]2)[O]C1=O [Oxaliplatin] | 61% | – | 89% | 174% | 75% | 47% | 43% | –
5 | COc1cc([C@@H]2c3cc4c(cc3[C@@H](O[C@@H]3O[C@@H]5CO[C@@H](C)O[C@H]5[C@H](O)[C@H]3O)[C@H]3COC(=O)[C@H]23)OCO4)cc(OC)c1O [Etoposide] | – | 109% | – | – | – | – | – | –
6 | COc1cccc2c1C(=O)c1c(O)c3c(c(O)c1C2=O)C[C@@](O)(C(=O)CO)C[C@@H]3O[C@H]1C[C@H](N)[C@@H](O)[C@H](C)O1 [Epirubicin] | – | 120% | – | – | – | – | – | –
7 | CC(=O)O[C@H]1C(=O)[C@@]2(C)[C@H]([C@H](OC(=O)c3ccccc3)[C@]3(O)C[C@H](OC(=O)[C@H](O)[C@@H](NC(=O)c4ccccc4)c4ccccc4)C(C)=C1C3(C)C)[C@]1(OC(C)=O)CO[C@@H]1C[C@@H]2O [Paclitaxel] | – | 79% | 52% | – | – | – | – | –
8 | CCc1c2c(nc3ccc(OC(=O)N4CCC(N5CCCCC5)CC4)cc13)-c1cc3c(c(=O)n1C2)COC(=O)[C@]3(O)CC [Irinotecan] | 68% | – | 72% | 227% | 12% | 5% | 48% | –
9 | O=c1[nH]cc(F)c(=O)[nH]1 [5-Fu] | 75% | 80% | 103% | 111% | 146% | 90% | 83% | –
10 | Bevazulimab: Test drug of the MDX123 groups, printed Bevacizumab in Table 5 | 76% and 101% | – | – | – | – | – | – | –
11 | Nc1ccn([C@@H]2O[C@H](CO)[C@@H](O)C2(F)F)c(=O)n1 [Gemcitabine] | – | – | – | 100% | 53% | 83% | 77% | –
